Results reported in patent US9006250B2, “4-amino-6-(heterocyclic)picolinates and 6-amino-2-(heterocyclic)pyrimidine-4-carboxylates and their use as herbicides” (Dow AgroSciences, LLC, priority 2013, dated 2015).

How the values were obtained:
[1] = test system: EPHHL: wild poinsettia (Euphorbia heterophylla); assay: Post-Emergent Test II herbicidal activity; type: in vivo; conditions: post-emergence, 336 h, 14 days, read-out: Visual Growth Reduction (%) 14 Days After Application EPHHL
Procedure, shortened: (§1)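 Seedlings raised 7-21 d under greenhouse conditions were treated at the first or second true leaf stage. Compounds, formulated with crop oil concentrate and surfactant, were applied overhead at 187 L/ha across a serial dilution series, with solvent-blank controls. Percent visual injury was scored after 14 d.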

[2] = test system: SETFA: giant foxtail (Setaria faberi); assay: Post-Emergent Test II herbicidal activity; type: in vivo; conditions: post-emergence, 336 h, 14 days, read-out: Visual Growth Reduction (%) 14 Days After Application SETFA
Procedure, shortened: as §1

[3] = test system: CYPES: yellow nutsedge (Cyperus esculentus); assay: Post-Emergent Test II herbicidal activity; type: in vivo; conditions: post-emergence, 336 h, 14 days, read-out: Visual Growth Reduction (%) 14 Days After Application CYPES
Procedure, shortened: as §1

[4] = test system: TRZAS: wheat, spring (Triticum aestivum); assay: Post-Emergent Test II herbicidal activity; type: in vivo; conditions: post-emergence, 336 h, 14 days, read-out: Visual Growth Reduction (%) 14 Days After Application TRZAS
Procedure, shortened: as §1

[5] = test system: ECHCG: barnyardgrass (Echinochloa crus-galli); assay: Post-Emergent Test II herbicidal activity; type: in vivo; conditions: post-emergence, 336 h, 14 days, read-out: Visual Growth Reduction (%) 14 Days After Application ECHCG
Procedure, shortened: as §1

[6] = test system: ABUTH: velvetleaf (Abutilon theophrasti); assay: Post-Emergent Test II herbicidal activity; type: in vivo; conditions: post-emergence, 336 h, 14 days, read-out: Visual Growth Reduction (%) 14 Days After Application ABUTH
Procedure, shortened: as §1

[7] = test system: ZEAMX: maize, corn (Zea mays); assay: Post-Emergent Test II herbicidal activity; type: in vivo; conditions: post-emergence, 336 h, 14 days, read-out: Visual Growth Reduction (%) 14 Days After Application ZEAMX
Procedure, shortened: as §1

[8] = test system: AMARE: redroot pigweed (Amaranthus retroflexus); assay: Post-Emergent Test II herbicidal activity; type: in vivo; conditions: post-emergence, 336 h, 14 days, read-out: Visual Growth Reduction (%) 14 Days After Application AMARE
Procedure, shortened: as §1

[9] = test system: HELAN: sunflower (Helianthus annuus); assay: Post-Emergent Test II herbicidal activity; type: in vivo; conditions: post-emergence, 336 h, 14 days, read-out: Visual Growth Reduction (%) 14 Days After Application HELAN
Procedure, shortened: as §1

[10] = test system: CHEAL: lambsquarters (Chenopodium album); assay: Post-Emergent Test II herbicidal activity; type: in vivo; conditions: post-emergence, 336 h, 14 days, read-out: Visual Growth Reduction (%) 14 Days After Application CHEAL
Procedure, shortened: as §1

[11] = test system: ORYSA: rice (Oryza sativa); assay: Post-Emergent Test II herbicidal activity; type: in vivo; conditions: post-emergence, 336 h, 14 days, read-out: Visual Growth Reduction (%) 14 Days After Application ORYSA
Procedure, shortened: as §1

[12] = test system: BRSNN: oilseed rape, canola (Brassica napus); assay: Post-Emergent Test II herbicidal activity; type: in vivo; conditions: post-emergence, 336 h, 14 days, read-out: Visual Growth Reduction (%) 14 Days After Application BRSNN
Procedure, shortened: as §1

Compound COC(=O)c1nc(-c2ccc3nonc3c2C)cc(N)c1Cl [Compound 17] has a pest or weed control at 35 g/ha ([1]; 35 g ai/ha) of 0 to 29%, a pest or weed control at 70 g/ha ([1]; 70 g ai/ha) of 0 to 29% and a pest or weed control at 140 g/ha ([1]; 140 g ai/ha) of 0 to 29%. The pest or weed control at 35 g/ha ([2]; 35 g ai/ha) was 0 to 29%, the pest or weed control at 70 g/ha ([2]; 70 g ai/ha) was 0 to 29% and the pest or weed control at 140 g/ha ([2]; 140 g ai/ha) was 0 to 29%. The pest or weed control at 35 g/ha ([3]; 35 g ai/ha) was 60 to 74%, the pest or weed control at 70 g/ha ([3]; 70 g ai/ha) was 60 to 74% and the pest or weed control at 140 g/ha ([3]; 140 g ai/ha) was 75 to 84%. It also gave a pest or weed control at 35 g/ha ([4]; 35 g ai/ha) of 0 to 29%, a pest or weed control at 70 g/ha ([4]; 70 g ai/ha) of 0 to 29% and a pest or weed control at 140 g/ha ([4]; 140 g ai/ha) of 30 to 44%. It also gave a pest or weed control at 35 g/ha ([5]; 35 g ai/ha) of 0 to 29%, a pest or weed control at 70 g/ha ([5]; 70 g ai/ha) of 0 to 29% and a pest or weed control at 140 g/ha ([5]; 140 g ai/ha) of 0 to 29%. The pest or weed control at 35 g/ha ([6]; 35 g ai/ha) was 0 to 29%, the pest or weed control at 70 g/ha ([6]; 70 g ai/ha) was 45 to 59% and the pest or weed control at 140 g/ha ([6]; 140 g ai/ha) was 60 to 74%. It also gave a pest or weed control at 35 g/ha ([7]; 35 g ai/ha) of 0 to 29%, a pest or weed control at 70 g/ha ([7]; 70 g ai/ha) of 0 to 29% and a pest or weed control at 140 g/ha ([7]; 140 g ai/ha) of 0 to 29%. For the same compound, the pest or weed control at 35 g/ha ([8]; 35 g ai/ha) was 95 to 100%, the pest or weed control at 70 g/ha ([8]; 70 g ai/ha) was 95 to 100% and the pest or weed control at 140 g/ha ([8]; 140 g ai/ha) was 95 to 100%. For the same compound, the pest or weed control at 35 g/ha ([9]; 35 g ai/ha) was 0 to 29%, the pest or weed control at 70 g/ha ([9]; 70 g ai/ha) was 45 to 59% and the pest or weed control at 140 g/ha ([9]; 140 g ai/ha) was 60 to 74%. It also gave a pest or weed control at 35 g/ha ([10]; 35 g ai/ha) of 85 to 94%, a pest or weed control at 70 g/ha ([10]; 70 g ai/ha) of 95 to 100% and a pest or weed control at 140 g/ha ([10]; 140 g ai/ha) of 95 to 100%. It also gave a pest or weed control at 35 g/ha ([11]; 35 g ai/ha) of 0 to 29%, a pest or weed control at 70 g/ha ([11]; 70 g ai/ha) of 0 to 29% and a pest or weed control at 140 g/ha ([11]; 140 g ai/ha) of 0 to 29%. It also gave a pest or weed control at 35 g/ha ([12]; 35 g ai/ha) of 60 to 74%, a pest or weed control at 70 g/ha ([12]; 70 g ai/ha) of 75 to 84% and a pest or weed control at 140 g/ha ([12]; 140 g ai/ha) of 85 to 94%. The melting point was 182 to 185 °C.
